Where two headings read alike, the source gives them in different places.
Tests used:
[1] = system: Loucy; assay: anti-proliferative activity; format: cell-based; details: Table 5
Procedure: (§1) After 7 days of treatment, an equal volume of CellTiter-Glo reagent (G7572, Promega) was added and the luminescence signal was measured using an automated Envision plate reader (Perkin-Elmer). Luminescence data were normalized by log10 transformation prior to calculating the percent inhibition using the following equation:
(§2) 100*(negative control mean −compound value)/(negative control mean −positive control mean).

[2] = system: SEM cells; assay: anti-proliferative activity; format: cell-based; details: Table 5
Procedure: as §1, §2

[3] = system: MV-4-11; assay: anti-proliferative activity; format: cell-based; details: Homo sapiens, MV4-11; Table 7
Procedure: as §1, §2

[4] = system: NALM-16; assay: anti-proliferative activity; format: cell-based; details: NALM16; Table 5
Procedure: as §1, §2

[5] = system: c-Myc expression in HDMB03 cells; assay: c-Myc expression inhibition, high content microscopy (HCM); format: cell-based, human; details: Homo sapiens, read-out: EC50 (μM) Myc-inhibition
Procedure: 3000 human G3 medulloblastoma or 2000 mouse SHH medulloblastoma cells per well were plated into 384-well plates (6007710, Perkin Elmer) in 30 μL of supplemented neurobasal medium using a Wellmate automated dispenser (Thermo Matrix). After 24 hours, 125 nl of compound was transferred via pin tool, resulting in a final drug concentration from 2 nM to 40 μM. 72 hours after adding the drug, the plates were fixed with 4% formaldehyde for 20 min. After fixation the cells were then washed 3 times with 75 μl of PBS. The cells were then permeabilized with 0.1% Triton-X 100 for 15 minutes at 25° C. and blocked using 1% BSA in PBS for 1 hour at 25° C. The primary antibody against c-Myc Ab (#9402, Cell Signaling) at a 1:400 dilution was diluted in 1% BSA in PBS. This mixture was added to each well before incubation overnight at 4° C. Each well was then washed 3 times with PBS using a Biotek ELX405 Select plate washer, and incubated for 1 hour at 25° C. with a solution containing 1/400 goat α-rabbit-Alexa-488 (4412S, Cell Signaling) and 1 μM Hoechst 33342 to detect nuclear material (H3570, Molecular Probes). Two images were captured of each well at 10× using a GE Healthcare InCell 6000 at 405 nM to detect nuclear staining and 488 nM to detect c-Myc. All data were analyzed using the multi-target analysis algorithm of the GE InCell Analyzer Workstation software. The number of nuclear objects in each well, as well as all nuclear measurements, was determined through nuclear masks over the Hoechst staining. C-Myc staining was then measured using top-hat segmentation in the entire cell.

[6] = target: BRD3(2) (Homo sapiens (Human), UniProt Q15059); assay: BROMOscan KD determination; format: binding
Chain of BRD3(2) (Q15059 306-415): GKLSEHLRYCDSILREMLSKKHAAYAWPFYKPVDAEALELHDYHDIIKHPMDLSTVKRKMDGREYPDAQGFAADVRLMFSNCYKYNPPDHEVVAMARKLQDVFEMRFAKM
Description: (§3) DiscoverX® can screen compounds against all ˜42 bromodomains (a service called BROMOscan) and perform follow-up KD determination. This service is considered the industrial standard for bromodomain inhibitor comparisons.

[7] = target: BRD3(1) (Homo sapiens (Human), UniProt Q15059); assay: BROMOscan KD determination; format: binding; details: Table 10
Chain of BRD3(1) (Q15059 34-140): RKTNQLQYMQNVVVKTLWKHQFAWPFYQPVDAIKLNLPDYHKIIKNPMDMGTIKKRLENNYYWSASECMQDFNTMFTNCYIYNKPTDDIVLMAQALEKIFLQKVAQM
Description: as §3

[8] = target: BRD4(1) (Homo sapiens (Human), UniProt O60885); assay: BROMOscan KD determination; format: binding; details: Table 10
Description: as §3

[9] = target: BRD4(2) (Homo sapiens (Human), UniProt O60885); assay: BROMOscan KD determination; format: binding
Description: as §3

[10] = system: HDMB03 cells; assay: cell viability, CellTiter-Glo; format: cell-based, human; details: Homo sapiens, read-out: EC50 (μM) HDMB03
Summary of the method: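 Medulloblastoma cells grown as neurospheres in supplemented neurobasal medium and treated for 7 days; viability read by CellTiter-Glo luminescence. Log10-transformed signal normalized to negative and positive controls; median percent inhibition of triplicates fitted with a four-parameter log-logistic model.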

[11] = target: BRD4-BD1 (Homo sapiens (Human), UniProt O60885); assay: competitive TR-FRET assay, BET-BD with acetylated peptide ligand; format: binding; details: Table 4; read-out: EC50 (μM) BRD4(1)
Procedure: (§4) Inhibitor potency was determined using a competitive TR-FRET assay as detailed herein, measuring interaction of the respective BET-BD with an acetylated peptide ligand (Table 2).

[12] = target: BRD3-BD1 (Homo sapiens (Human), UniProt Q15059); assay: as above; format: binding
Chain of BRD3-BD1 (Q15059 34-140): as above
Procedure: as §4

[13] = target: BRD2-BD2 (Homo sapiens (Human), UniProt P25440); assay: as above; format: binding; details: for EC50: read-out: EC50 (μM) BRD2(2)
Chain of BRD2-BD2 (P25440 344-453): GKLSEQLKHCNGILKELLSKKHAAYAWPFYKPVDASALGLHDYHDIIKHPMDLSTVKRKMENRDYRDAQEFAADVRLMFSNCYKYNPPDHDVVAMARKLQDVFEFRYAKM
Procedure: as §4

[14] = target: BRDT (Homo sapiens, UniProt Q58F21); assay: as above; format: binding
Procedure: as §4

[15] = target: BRD2-BD1 (Homo sapiens (Human), UniProt P25440); assay: as above; format: binding; details: read-out: EC50 (μM) BRD2(1)
Chain of BRD2-BD1 (P25440 74-180): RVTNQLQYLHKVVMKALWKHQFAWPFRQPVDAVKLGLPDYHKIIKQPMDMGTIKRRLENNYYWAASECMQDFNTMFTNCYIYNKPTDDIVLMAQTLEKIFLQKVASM
Procedure: as §4

[16] = target: BRD4-BD2 (Homo sapiens (Human), UniProt O60885); assay: as above; format: binding
Procedure: as §4

[17] = target: BRD2(2) (Homo sapiens (Human), UniProt P25440); assay: BROMOscan KD determination; format: binding
Chain of BRD2(2) (P25440 344-453): as the sequence (P25440 344-453) above
Summary of the method: (§5)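 BROMOscan panel, ~42 bromodomains; single-point competition at 1 μM cpd vs control per bromodomain. KD determinations run as BROMOscan follow-up.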

[18] = target: BRDT(2) (Homo sapiens (Human), UniProt Q58F21); assay: BROMOscan KD determination; format: binding
Summary of the method: as §5

[19] = target: BRDT(1) (Homo sapiens (Human), UniProt Q58F21); assay: BROMOscan KD determination; format: binding; details: Table 10
Summary of the method: as §5

[20] = target: BRD2(1) (Homo sapiens (Human), UniProt P25440); assay: BROMOscan KD determination; format: binding; details: Table 10
Chain of BRD2(1) (P25440 74-180): as the sequence (P25440 74-180) above
Summary of the method: as §5

[21] = system: neural crest tumor cell lines; assay: activity versus neural crest tumor cell lines; format: cell-based; details: several neural crest tumor cell lines; read-out: IC50 ranges

## COC(=O)c1ccc(N[C@@H]2C[C@H](C)N(C(C)=O)c3ccc(-c4cccc(NC(C)=O)c4)cc32)cc1 [compound 4]
[1]
  EC50: 0.39 µM
[2]
  EC50: 0.02 µM
[3]
  EC50: 0.016 µM
[4]
  EC50: 0.35 µM
[5]; HD-MB03, Table 5
  EC50: 0.03 µM
[5]; HD-MB03, Table 7
  EC50: 1.3 µM
[5]; HD-MB03, Table 9, c-Myc expression inhibition in HDMB03 cells
  EC50: 1.3 µM
[6]; BROMOscan KD ratio
  3(1)/3(2): 1.8
[6]; BROMOscan, Table 10
  Kd: 0.39 nM
[7]
  Kd: 0.72 nM
[8]
  Kd: 27 nM
[9]; BROMOscan KD ratio
  4(1)/4(2): 64.3
[9]; BROMOscan, Table 10
  Kd: 0.42 nM
[10]; HD-MB03, Table 5
  EC50: 0.31 µM
[10]; HD-MB03, Table 7
  EC50: 0.75 µM
[10]; HD-MB03, Table 9, cancer cell proliferation inhibition
  EC50: 0.75 µM
[11]
  EC50: 0.43 µM
[12]; Table 4, read-out: BRD3(1)
  EC50: 1.1 µM
[12]; Table 6, read-out: EC50 (μM) BRD3(1)
  EC50: 1.1 µM
[12]; Table 8, read-out: BRD3(1)
  EC50: 1.1 µM
[13]; Table 4, ratio of EC50
  [2(1)/2(2)]: 19.5
[13]; Table 4
  EC50: 0.022 µM
[13]; Table 6, ratio of EC50
  [2(1)/2(2)]: 14.2
[13]; Table 6
  EC50: 0.11 µM
[13]; Table 8
  EC50: 0.11 µM
[14]; Table 4, read-out: BRDT EC50
  EC50: 4000 nM
[14]; Table 6, head names no target, BRDT by comparison with Table 4, read-out: EC50
  EC50: 4000 nM
[14]; Table 8, head names no target, BRDT by comparison with Table 4, read-out: EC50
  EC50: 4000 nM
[15]; Table 4
  EC50: 0.43 µM
[15]; Table 6
  EC50: 1.56 µM
[15]; Table 8
  EC50: 1.56 µM
[16]; Table 4, ratio of EC50
  4(1)/4(2): 20.5
[16]; Table 4, read-out: EC50 (μM) BRD4(2)
  EC50: 0.021 µM
[17]; BROMOscan KD ratio
  [2(1)/2(2)]: 36.9
[17]; BROMOscan, Table 10
  Kd: 0.65 nM
[18]; BROMOscan KD ratio
  T(1)/T(2): 1.0
[18]; BROMOscan, Table 10
  Kd: 4.9 nM
[19]
  Kd: 4.9 nM
[20]
  Kd: 24 nM
[21]
  IC50: 50 to 200 nM

— patent US11028051B2, “Tetrahydroquinoline-based bromodomain inhibitors” (St. Jude Children's Research Hospital, priority 2016, dated 2021)
